In paper PMC4188605, “Biochemical and Pharmacological Characterization of the Human Lymphocyte Antigen B-Associated Transcript 5 (BAT5/ABHD16A)” (PLoS ONE, 2014):
Entries after “also recorded” stand apart in the source; their conditions may differ.

Columns and labels:
hFAAH = molecular target: T1, hFAAH (Homo sapiens, UniProt O00519); experiment: FAAH activity assay, hFAAH-COS7 membranes (3H-anandamide); assay type: biochemical
T1 construct: expressed in transfected cells; host or cells: COS-7
T1 sequence (O00519 1-579): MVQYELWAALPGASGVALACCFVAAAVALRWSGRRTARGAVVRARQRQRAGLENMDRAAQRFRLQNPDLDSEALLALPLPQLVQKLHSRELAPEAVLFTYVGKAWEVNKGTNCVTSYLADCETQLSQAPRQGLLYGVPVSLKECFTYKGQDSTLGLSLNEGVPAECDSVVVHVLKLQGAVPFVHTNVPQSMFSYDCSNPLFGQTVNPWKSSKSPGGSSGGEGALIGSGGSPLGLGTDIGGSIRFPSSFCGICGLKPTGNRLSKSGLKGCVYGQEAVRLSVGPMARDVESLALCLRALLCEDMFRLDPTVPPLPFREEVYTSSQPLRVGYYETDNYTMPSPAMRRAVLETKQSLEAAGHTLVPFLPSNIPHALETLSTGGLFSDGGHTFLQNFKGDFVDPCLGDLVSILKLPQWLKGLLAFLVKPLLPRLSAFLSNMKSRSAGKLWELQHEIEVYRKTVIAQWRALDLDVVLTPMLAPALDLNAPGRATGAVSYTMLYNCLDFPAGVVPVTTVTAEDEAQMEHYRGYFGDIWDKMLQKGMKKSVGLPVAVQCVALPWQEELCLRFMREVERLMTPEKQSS

LYPLA1 = tested on: LYPLA1; set-up: method as in PMID 20418879; settings: originally reported; read-out: IC50 in vitro towards LYPLA1; cited from earlier work
MAGL = molecular target: T2, MAGL (Mus musculus, UniProt O35678); experiment: Competitive ABPP, mouse brain membrane proteome: MAGL doublet; settings: at the highest concentration (10^−5 M)
T2 sequence (O35678 1-303): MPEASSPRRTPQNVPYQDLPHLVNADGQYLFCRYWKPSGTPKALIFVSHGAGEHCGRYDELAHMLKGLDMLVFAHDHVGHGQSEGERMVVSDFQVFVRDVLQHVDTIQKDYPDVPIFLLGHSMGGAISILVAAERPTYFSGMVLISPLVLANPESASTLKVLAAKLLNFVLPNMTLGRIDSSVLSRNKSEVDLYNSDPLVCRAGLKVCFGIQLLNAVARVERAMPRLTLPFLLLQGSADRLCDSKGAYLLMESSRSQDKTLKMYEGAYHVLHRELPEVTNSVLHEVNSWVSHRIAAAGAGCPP

What does the source list for `CCCCCCCCCC[C@@H]1C(=O)O[C@H]1CCc1ccc(OC)c(OC)c1` [Palmostatin B, palmostatin B]?
sensitivity of hFAAH (in words) (hFAAH): resistant; remaining activity at 1 µM (hFAAH; at 10^−6 M): 92.4%; IC50 (LYPLA1): 670 nM; inhibition of probe binding to MAGL (MAGL): inhibited probe binding; also recorded: also inhibited
